Measured values: patent US6939946B2, “Ring modified cyclic peptide analogs” (Eli Lilly and Company, priority 1998, dated 2005)
Where two headings read alike, the source gives them in different places. Numbered stars: 1 amine (or outer) side, 2 acyl side, 3 side chain; on linkers, the order of the positions; unused ones are H or OH. Bridge positions count the residues as written; N and C are the ends. Square brackets hold non-standard residues; d marks the D form. Peptide text beside a SMILES is read from it. * marks the point of attachment. ξ: configuration not given here. pTerphenylCO(4''-OnC5H11) = CCCCCOc1ccc(-c2ccc(-c3ccc(C(=O)*)cc3)cc2)cc1; Orn(4R-OH,5R-OH) = O=C([C@H](C[C@@H](O)[C@@H](O)N[*:3])N[*:1])[*:2]; Pro(3S-OH,4S-Me) = C[C@H]1CN[C@H](C(=O)O)[C@H]1O; hTyr(3R-OH) = N[C@H](C(=O)O)[C@H](O)Cc1ccc(O)cc1; X1 = CN1CCC(NC[C@H](N[*:1])C(=O)[*:2])CC1; Hyp = O=C(O)[C@@H]1C[C@@H](O)CN1; Thr(3ξ) = CC(O)[C@H](N)C(=O)O; dDap = NC[C@@H](N)C(=O)O; Dap = NC[C@H](N)C(=O)O

Experiments:
C. albicans = details: in vitro
C. parapsilosis = details: in vitro
A. fumigatus [1] = details: in vitro
Histoplasma capsulatum = details: in vitro
Cryptococcus neoformans = details: in vitro
A. Fumigatus [2] = details: murine model of organ recovery, cited from earlier work
Pneumocystis carinii = details: cited from earlier work
[3] = the molecule shown is the open-chain precursor; other bond; 21-membered ring; SnCl2/NaHCO3; CH2Cl2; 2.0 mM
[4] = the molecule shown is the open-chain precursor, amide bond, H2/Pd-C (EtOH/AcOH), then Et3N, Et2O, 2 steps

CCCCCOc1ccc(-c2ccc(-c3ccc(C(=O)N[C@H]4C[C@@H](O)[C@@H](O)NC(=O)[C@@H]5[C@@H](O)[C@@H](C)CN5C(=O)[C@H](C(C)O)NC(=O)[C@H]([C@H](O)Cc5ccc(O)cc5)NC(=O)[C@@H]5C[C@@H](O)CN5C(=O)[C@H](C(C)O)NC4=O)cc3)cc2)cc1 (stereo partly drawn) [Compound C1, reference compound] ({pTerphenylCO(4''-OnC5H11)}-[Orn(4R-OH,5R-OH)][Thr(3ξ)][Hyp][hTyr(3R-OH)][Thr(3ξ)][Pro(3S-OH,4S-Me)]; lactam 1-C)
Minimal Inhibitory Concentration MIC C. albicans (C. albicans): 0.01 µg/mL
Minimal Inhibitory Concentration MIC C. parapsilosis (C. parapsilosis): 0.156 µg/mL
Minimal Inhibitory Concentration MIC A. fumigatus (A. fumigatus [1]): 0.02 µg/mL
Minimal Inhibitory Concentration MIC Histoplasma capsulatum (Histoplasma capsulatum): 0.01 µg/mL
Minimal Inhibitory Concentration MIC Cryptococcus neoformans (Cryptococcus neoformans): >20 µg/mL
number of A. Fumigatus recovered from the kidneys (A. Fumigatus [2]; administered intraperitoneally): significantly reduced
effectiveness compared with amphotericin B on a mg/kg basis (A. Fumigatus [2]; both administered intraperitoneally): as effective as amphotericin B
reduction of the number of cysts in the lungs (Pneumocystis carinii; heavily infected, immunosuppressed rats, orally 5 mg/kg once daily for 4 days): more than 99%
reduction in all life cycle forms (Pneumocystis carinii; prophylactic oral administration of 1 mg/kg twice daily for 4 weeks): > 90%

CCCCCOc1ccc(-c2ccc(-c3ccc(C(=O)N[C@H]4CNC(=O)[C@H](CN)NC(=O)[C@@H]5[C@@H](O)[C@@H](C)CN5C(=O)[C@H](C(C)O)NC(=O)[C@H]([C@H](O)Cc5ccc(O)cc5)NC(=O)[C@@H]5C[C@@H](O)CN5C(=O)[C@H](C(C)O)NC4=O)cc3)cc2)cc1 (stereo partly drawn) [Compound E8-8] ({pTerphenylCO(4''-OnC5H11)}-[Dap][Thr(3ξ)][Hyp][hTyr(3R-OH)][Thr(3ξ)][Pro(3S-OH,4S-Me)][Dap]; lactam 1-C)
Minimal Inhibitory Concentration MIC C. albicans (C. albicans): 0.078 µg/mL
Minimal Inhibitory Concentration MIC C. parapsilosis (C. parapsilosis): 0.625 µg/mL
Minimal Inhibitory Concentration MIC A. fumigatus (A. fumigatus [1]): 5.0 µg/mL
Minimal Inhibitory Concentration MIC Histoplasma capsulatum (Histoplasma capsulatum): 0.312 µg/mL
Minimal Inhibitory Concentration MIC Cryptococcus neoformans (Cryptococcus neoformans): >20 µg/mL

CCCCCOc1ccc(-c2ccc(-c3ccc(C(=O)N[C@H]4CNC(=O)[C@H](CNC5CCN(C)CC5)NC(=O)[C@@H]5[C@@H](O)[C@@H](C)CN5C(=O)[C@H](C(C)O)NC(=O)[C@H]([C@H](O)Cc5ccc(O)cc5)NC(=O)[C@@H]5C[C@@H](O)CN5C(=O)[C@H](C(C)O)NC4=O)cc3)cc2)cc1 (stereo partly drawn) [Compound E8-9] ({pTerphenylCO(4''-OnC5H11)}-[Dap][Thr(3ξ)][Hyp][hTyr(3R-OH)][Thr(3ξ)][Pro(3S-OH,4S-Me)][X1]; lactam 1-C)
Minimal Inhibitory Concentration MIC C. albicans (C. albicans): 0.156 µg/mL
Minimal Inhibitory Concentration MIC C. parapsilosis (C. parapsilosis): 5.0 µg/mL
Minimal Inhibitory Concentration MIC A. fumigatus (A. fumigatus [1]): 5.0 µg/mL
Minimal Inhibitory Concentration MIC Histoplasma capsulatum (Histoplasma capsulatum): 0.625 µg/mL
Minimal Inhibitory Concentration MIC Cryptococcus neoformans (Cryptococcus neoformans): >20 µg/mL

CCCCCOc1ccc(-c2ccc(-c3ccc(C(=O)N[C@@H]4CNC(=O)CNC(=O)[C@@H]5[C@@H](O)[C@@H](C)CN5C(=O)[C@H](C(C)O)NC(=O)[C@H]([C@H](O)Cc5ccc(O)cc5)NC(=O)[C@@H]5C[C@@H](O)CN5C(=O)[C@H](C(C)O)NC4=O)cc3)cc2)cc1 (stereo partly drawn) [E7-6(a)] ({pTerphenylCO(4''-OnC5H11)}-[dDap][Thr(3ξ)][Hyp][hTyr(3R-OH)][Thr(3ξ)][Pro(3S-OH,4S-Me)]G; lactam 1-C)
Minimal Inhibitory Concentration MIC C. albicans (C. albicans): >20 µg/mL
Minimal Inhibitory Concentration MIC C. parapsilosis (C. parapsilosis): >20 µg/mL
Minimal Inhibitory Concentration MIC A. fumigatus (A. fumigatus [1]): >20 µg/mL
Minimal Inhibitory Concentration MIC Histoplasma capsulatum (Histoplasma capsulatum): >20 µg/mL
Minimal Inhibitory Concentration MIC Cryptococcus neoformans (Cryptococcus neoformans): >20 µg/mL

CCCCCOc1ccc(-c2ccc(-c3ccc(C(=O)N[C@H]4CNC(=O)CNC(=O)[C@@H]5[C@@H](O)[C@@H](C)CN5C(=O)[C@H](C(C)O)NC(=O)[C@H]([C@H](O)Cc5ccc(O)cc5)NC(=O)[C@@H]5C[C@@H](O)CN5C(=O)[C@H](C(C)O)NC4=O)cc3)cc2)cc1 (stereo partly drawn) [E7-6(b)] ({pTerphenylCO(4''-OnC5H11)}-[Dap][Thr(3ξ)][Hyp][hTyr(3R-OH)][Thr(3ξ)][Pro(3S-OH,4S-Me)]G; lactam 1-C)
Minimal Inhibitory Concentration MIC C. albicans (C. albicans): 0.312 µg/mL
Minimal Inhibitory Concentration MIC C. parapsilosis (C. parapsilosis): >20 µg/mL
Minimal Inhibitory Concentration MIC A. fumigatus (A. fumigatus [1]): 5.0 µg/mL
Minimal Inhibitory Concentration MIC Histoplasma capsulatum (Histoplasma capsulatum): 1.25 µg/mL
Minimal Inhibitory Concentration MIC Cryptococcus neoformans (Cryptococcus neoformans): >20 µg/mL

CCCCCOc1ccc(-c2ccc(-c3ccc(C(=O)NC[C@H]4NC(=O)CNC(=O)[C@@H]5[C@@H](O)[C@@H](C)CN5C(=O)[C@H](C(C)O)NC(=O)[C@H]([C@H](O)Cc5ccc(O)cc5)NC(=O)[C@@H]5C[C@@H](O)CN5C(=O)[C@H](C(C)O)NC4=O)cc3)cc2)cc1 (stereo partly drawn) [E7-14(a)] (cyclo(G[dDap](pTerphenylCO(4''-OnC5H11))[Thr(3ξ)][Hyp][hTyr(3R-OH)][Thr(3ξ)][Pro(3S-OH,4S-Me)]))
Minimal Inhibitory Concentration MIC C. albicans (C. albicans): 0.312 µg/mL
Minimal Inhibitory Concentration MIC C. parapsilosis (C. parapsilosis): >20 µg/mL
Minimal Inhibitory Concentration MIC A. fumigatus (A. fumigatus [1]): >20 µg/mL
Minimal Inhibitory Concentration MIC Histoplasma capsulatum (Histoplasma capsulatum): 0.312 µg/mL
Minimal Inhibitory Concentration MIC Cryptococcus neoformans (Cryptococcus neoformans): >20 µg/mL

CCCCCOc1ccc(-c2ccc(-c3ccc(C(=O)NC[C@@H]4NC(=O)CNC(=O)[C@@H]5[C@@H](O)[C@@H](C)CN5C(=O)[C@H](C(C)O)NC(=O)[C@H]([C@H](O)Cc5ccc(O)cc5)NC(=O)[C@@H]5C[C@@H](O)CN5C(=O)[C@H](C(C)O)NC4=O)cc3)cc2)cc1 (stereo partly drawn) [E7-14(b)] (cyclo([Dap](pTerphenylCO(4''-OnC5H11))[Thr(3ξ)][Hyp][hTyr(3R-OH)][Thr(3ξ)][Pro(3S-OH,4S-Me)]G))
Minimal Inhibitory Concentration MIC C. albicans (C. albicans): 0.156 µg/mL
Minimal Inhibitory Concentration MIC C. parapsilosis (C. parapsilosis): >20 µg/mL
Minimal Inhibitory Concentration MIC A. fumigatus (A. fumigatus [1]): >20 µg/mL
Minimal Inhibitory Concentration MIC Histoplasma capsulatum (Histoplasma capsulatum): 0.078 µg/mL
Minimal Inhibitory Concentration MIC Cryptococcus neoformans (Cryptococcus neoformans): >20 µg/mL

Boc-Asp-semialdehyde(dimethyl acetal)-Thr(TBS)-Hyp(TBS)-hTyr(3-OTBS,4'-OTBS)-Thr(TBS)-Pro(3-OTBS,4-Me)-NHNH2?
ring closure, crude yield [3]: 100%

Boc-Cys(SO2; S-CH2CH2NH2)-Thr(TBS)-Hyp(TBS)-hTyr(3-OTBS,4'-OTBS)-Thr(TBS)-Pro(3-OTBS,4-Me)-N(Boc)2?
ring closure, isolated yield ([4]; 22-membered ring, 1.1 mM): 67%

Boc-Orn-Val-Hyp(TBS)-hTyr(3-OTBS,4'-OTBS)-Thr(TBS)-Pro(3-OTBS,4-Me)-N(Boc)2?
ring closure, isolated yield ([4]; 21-membered ring, 2.1 mM): 43%
